Laboratory results as given in patent US11452720B2, “Crystalline polymorphs of the free base of 2-hydroxy-6-((2-(1-isopropyl-1H-pyrazol-5-yl)pyridin-3-yl)methoxy)benzaldehyde” (Global Blood Therapeutics, Inc., priority 2014, dated 2022).
“Also recorded” adds a separate entry of the source. Where a name gives a salt, the structure may show the parent alone.

Legend:
Assay type in all cases: physicochemical
[1] = Disproportionation of the sulfate salt when precipitated with water; details: from solvents such as dimethyl sulfoxide and methanol when precipitated with water
Source text: This invention arises in part out the discovery that an HCl salt of Compound 1 disproportionates or loses HCl, and a disproportionation of the HCl salt of Compound 1 in water generates the free base and disproportionation was facile upon exposure to elevated humidity, with wet milling, and in direct contact with water (e.g. slurry). The sulfate salt of Compound 1 also disproportionates from certain solvents such as dimethyl sulfoxide and methanol when precipitated with water. The volatilization of HCl was evident within hours of exposure to drying conditions. For example, partial conversion to the free base was observed within 12 hours at 30° C. Accordingly, the free base of Compound 1 provides a stabler chemical entity compared to the corresponding HCl or sulfate and such other salt.

[2] = Extended solvent mediated maturation of form II / form N mixtures in hexane; details: temperatures of 20° C. and lower
Description: Extended solvent mediated maturation studies were conducted with 1:1 w/w mixtures of polymorphic form II and form N. Hexane provided a good medium for solvent assessments. The temperatures used include −20° C., −10° C., 0° C., 10° C., 20° C., 30° C., 40° C. and 50° C. […] Solids derived from maturation at −20° C., −10° C., 0° C., 10° C., 20° C. were analyzed by X-ray powder diffraction.

[3] = Estimated transition temperature and relative thermodynamic stability of free base forms
Source text: Phase transitions of solids can be thermodynamically reversible or irreversible. Crystalline forms which transform reversibly at a specific transition temperature (T) are called enantiotropic polymorphs. If the crystalline forms are not interconvertable under these conditions, the system is monotropic (one thermodynamically stable form). Several rules have been developed to predict the relative thermodynamic stability of polymorphs and whether the relationship between the polymorphs is enantiotropic or monotropic. The heat of fusion rule is applied within this study. The heat of fusion rule states that if the higher melting form has the lower heat of fusion then the two forms are enantiotropic, otherwise they are monotropic.
The estimated transition temperature between two enantiotropically related forms can be calculated from their melt onsets and heats of fusion based on the equation shown below.

[4] = Physical stability evaluation of Free Base Form II and Material N (modulated DSC / temperature and humidity exposure, then XRPD); details: for change in physical form by XRPD: 40° C./75% RH, 80° C./80% RH for 9 days; for change in physical form by XRPD after modulated DSC: underlying heating rate 0.02° C. min^−1
Description: DSC was modulated at low underlying heating rate, followed by X-ray powder diffraction. A low underlying heating rate was used of 0.02° C. min^−1. The temperature was 80° C. for form N and 90° C. for form II. Exposure was essentially isothermal, covering a temperature range with sensitivity to detect changes in physical form. The resultant materials were examined by X-ray powder diffraction.
Forms II and N were exposed to 40° C./75% relative humidity (RH), 80° C., 80° C./80% RH for 9 days followed by X-ray powder diffraction.

[5] = Ambient storage of Form II, reanalysis by XRPD; details: after 7 days
Source text: The form is known to be thermodynamically metastable, relative to Material N, at this condition; however, the kinetics of polymorph conversion may be slow at ambient conditions in the solid state.

[6] = Dynamic vapor sorption (DVS) with post-DVS XRPD; details: for DVS weight loss from 95 to 5% RH: desorption 95 to 5% RH; for post-DVS XRPD result: material recovered from the DVS experiment; for DVS weight gain from 5 to 95% RH: sorption 5 to 95% RH
Description: Dynamic vapor sorption (DVS) data were collected on a VTI SGA-100 Vapor Sorption Analyzer. NaCl and PVP were used as calibration standards. Samples were not dried prior to analysis. Adsorption and desorption data were collected over a range from 5 to 95% RH at 10% RH increments under a nitrogen purge. The equilibrium criterion used for analysis was less than 0.0100% weight change in 5 minutes with a maximum equilibration time of 3 hours. Data were not corrected for the initial moisture content of the samples.

[7] = Physical stability of the HCl salt exposed to water (disproportionation, XRPD)
Description: Solutions were prepared by adding enough solids to a given solvent so that excess solids were present. The mixture was then agitated in a sealed vial at either ambient or an elevated temperature. After a given amount of time, the solids were isolated for analysis.
(§1) The HCl salt (termed “HCl Form I”) was subjected to various stress conditions and monitored by XRPD to evaluate physical stability. […] Disproportionation is further evident with wet milling or in direct contact with water (e.g. slurry) as shown by the presence of Free Base Forms I or II, identified by XRPD. […] (after 12 hrs), 40° C. (after 6 hrs), and at 40° C./48 mmHg (after 6 hrs). • Free Base Material C becomes evident at more extreme conditions involving elevated temperatures. Heating HCl Form I up to 125° C. induces the loss of acidic volatiles (judged visually by use of pH paper held above sample). […] Exposing the HCl salt to 60° C. under vacuum for 6 days provides the same result. The nature of Material C is not established

[8] = Physical stability of the HCl salt exposed to elevated temperature and/or vacuum (XRPD)
Description: Selected materials were stressed at elevated related humidity and/or temperature. Relative humidity jars (saturated salt solutions used to generate desired relative humidity) were utilized to store selected samples. The following relative humidity jars were utilized during evaluation: 75% RH (NaCl) and 60% (NaBr), to investigate the effects of humidity. Temperatures utilized were ambient, 30, 40, 60, and 100-125° C.
Selected materials were stressed under reduced pressure for a set time period. Initial stressing was conducted with the in-house vacuum system with absolute pressure readings <500 mTorr, typically 30 to 50 mTorr (0.030 to 0.05 mm Hg). Additional vacuum stressing was conducted at 48 mmHg utilizing a portable lab vacuum and bleed to simulate conditions similar to those expected during process.
as §1

[9] = Physical stability of the HCl salt with grinding (XRPD); details: 30 min
Description: Selected material was milled utilizing a Reitch Mill. The material was loaded into an agate lined milling vessel followed by the addition of an agate ball. The vessel was then placed on to the mill and milled for approximately 30 minutes at frequency of […]. The milling was stopped approximately every 10 minutes and material scraped from the wall before further milling.

[10] = Chemical and physical stability evaluation of Free Base Form I (UPLC, XRPD)
Description: Three conditions were used; open to 25° C./60% RH, open to 40° C./75% RH, and closed to 60° C. Physical stability was evaluated by XRPD. Chemical stability was determined through UPLC and ^1H NMR, when applicable. Materials were tested after 1, 7, and 14 days of exposure.

CC(C)n1nccc1-c1ncccc1COc1cccc(O)c1C=O [sulfate salt of Compound 1, 2-hydroxy-6-((2-(1-isopropyl-1H-pyrazol-5-yl)pyridin-3-yl)methoxy)benzaldehyde]
disproportionation of the salt [1]: disproportionates

CC(C)n1nccc1-c1ncccc1COc1cccc(O)c1C=O [Material N, 2-hydroxy-6-((2-(1-isopropyl-1H-pyrazol-5-yl)pyridin-3-yl)methoxy)benzaldehyde]
relative thermodynamic stability [2]: thermodynamically more stable than form II | Relative Stability ([3]; Below 6° C.): N > II | Relative Stability ([3]; Between 6° C. and T^N-II): N > II > I | change in physical form by XRPD ([4]; 80° C.): No changes in physical form | change in physical form by XRPD after modulated DSC ([4]; 80° C.): No changes in physical form

CC(C)n1nccc1-c1ncccc1COc1cccc(O)c1C=O [Form II, 2-hydroxy-6-((2-(1-isopropyl-1H-pyrazol-5-yl)pyridin-3-yl)methoxy)benzaldehyde]
XRPD after storage [5]: remained unchanged; also recorded: Free Base Form II | Relative Stability ([3]; Above T^N-II): (II > I) | Relative Stability ([3]; Below 6° C.): N > II | Relative Stability ([3]; Between 6° C. and T^N-II): N > II > I | change in physical form by XRPD ([4]; 80° C.): No changes in physical form | change in physical form by XRPD after modulated DSC ([4]; 90° C.): No changes in physical form

CC(C)n1nccc1-c1ncccc1COc1cccc(O)c1C=O [HCl salt of Compound 1, 2-hydroxy-6-((2-(1-isopropyl-1H-pyrazol-5-yl)pyridin-3-yl)methoxy)benzaldehyde]
DVS weight loss from 95 to 5% RH [6]: 0.09% loss from 95 to 5% RH | DVS weight gain upon equilibration at 5% RH ([6]; equilibration at 5% RH): 0.03% gain upon equilibration at 5% RH | post-DVS XRPD result [6]: HCl I + Free Base Form I | post-DVS XRPD result ([6]; listed as HCl salt): disproportionation occurred | DVS weight gain from 5 to 95% RH [6]: 0.10% gain from 5 to 95% RH | disproportionation on contact with water ([7]; contact with water): Immediate disproportionation occurs; also recorded: disproportionate immediately | XRPD Result ([7]; vacuum dried, about 1 day): FB I | XRPD Result ([7]; water slurry, about 5 min): Free base (FB) I | XRPD Result ([7]; water slurry, about 5 min, listed as HCl salt): Free Base Form I | XRPD Result ([7]; water slurry, about 6 days): FB I + FB II | time after which conversion to Free Base Form I was observed by XRPD ([8]; 30° C.): 12 h | XRPD Result ([8]; 30° C., 6 hrs): HCl I | XRPD Result ([8]; 30° C., 12 hrs): HCl I + FB I | XRPD Result ([8]; 30° C., 24 hrs): HCl I + FB I | time within which partial conversion to the free base was observed ([8]; 30° C., drying conditions): ≤ 12 h | time after which conversion to Free Base Form I was observed by XRPD ([8]; 40° C.): 6 h | XRPD Result ([8]; 40° C. vacuum, 6 hrs): HCl I + FB I | XRPD Result ([8]; 40° C. vacuum, 12 hrs): HCl I + FB I | XRPD Result ([8]; 40° C. vacuum, 24 hrs): HCl I + FB I | XRPD Result ([8]; 40° C., 6 hrs): HCl I + FB I | XRPD Result ([8]; 40° C., 12 hrs): HCl I + FB I | XRPD Result ([8]; 40° C., 24 hrs): HCl I + FB I | time after which conversion to Free Base Form I was observed by XRPD ([8]; 40° C./48 mmHg): 6 h | XRPD Result ([8]; 60° C. vacuum, 6 days): HCl I + FB I + | XRPD Result ([8]; 60° C. vacuum, 6 days, listed as HCl salt): same result | XRPD Result ([8]; 60° C., 6 days): HCl I + FB I | XRPD Result ([8]; 100 to 125° C., 20 min): HCl I + FB I + | XRPD Result ([8]; 100 to 125° C., 20 min, listed as HCl Form I): mixture of HCl Form I, Free Base Form I, and Free Base Material C | XRPD Result ([8]; RT vacuum, 6 days): HCl I + FB I | XRPD Result ([9]; dry): HCl I | XRPD Result ([9]; wet): HCl I + FB I

CC(C)n1nccc1-c1ncccc1COc1cccc(O)c1C=O [Form I, 2-hydroxy-6-((2-(1-isopropyl-1H-pyrazol-5-yl)pyridin-3-yl)methoxy)benzaldehyde]
hygroscopicity by DVS isotherm [6]: not hygroscopic | weight gain and loss through sorption/desorption ([6]; DVS): 0.2% | DVS weight loss from 95 to 5% RH [6]: 0.22% loss from 95 to 5% RH | DVS weight loss upon equilibration at 5% RH ([6]; equilibration at 5% RH): 0.02% loss upon equilibration at 5% RH | post-DVS XRPD result [6]: predominately Free Base Form I with a few additional peaks; also recorded: Free Base Form I + other Free Base Material | DVS weight gain from 5 to 95% RH [6]: 0.22% gain from 5 to 95% RH | chemical stability: level of impurities by UPLC ([10]; open 25° C./60% RH, open 40° C./75% RH, closed 60° C., after 14 days): did not rise significantly | physical stability by XRPD ([10]; open to 25° C./60% RH, 1, 7 and 14 days): remained unchanged | physical stability by XRPD ([10]; open to 40° C./75% RH and closed to 60° C., after 7 days): Free Base Form II was observed
